The test system of one data set is 1a-H77 replicon cells. The data set is described as follows: HCV 1a replicon inhibitory activity (Renilla luciferase). The conditions noted are these: Hepatitis C virus, read-out: IC50 value (95% Confidence Intervals) pM Replicon 1A assay. It counts as cell-based, hepatitis C virus. The method in brief:
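Replicon cells in DMEM + 10% FCS incubated 48 hours at 37° C., 5% CO2 with 1-in-3 serial dilutions of compound prepared in DMSO. Replication read as Renilla luciferase luminescence after lysis. EC50 taken from log concentration-response curves.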

The next data set deals with 1b (con1) replicon cells. Nature of the data set: HCV 1b replicon inhibitory activity (luciferase, Britelite Plus). The conditions noted are these: Hepatitis C virus, read-out: IC50 value (95% Confidence Intervals) pM Replicon 1B assay. Type of data set: cell-based, hepatitis C virus. The method in brief: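 1b (con1) luciferase replicon cells in DMEM + 10% FCS were exposed to 1-in-3 DMSO compound dilutions for 48 h at 37° C, 5% CO2. Luminescence was read 1-15 min after Britelite Plus addition; EC50 came from log concentration-response curves.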

Data set [1] is described as follows: Compound induced cytotoxicity in HCV replicon cell lines (WST-1 reagent). Type of data set: cell-based. The conditions noted are these: human. As to the method: Test compounds were solubilised to 4 mM in 100% DMSO. Dilutions were made to the desired starting concentration in 100% DMSO and then 1 in 3 dilutions made, again in 100% DMSO. 0.5 μl of each sample was added to 384-well assay plates. White Lumitrac (Greiner) plates were used for the 1a and 1b replicon assays and black, clear bottomed (Greiner) plates were used for the WST-1 cytotoxity assay.
1b (con1) replicon cells were resuspended to a concentration of 1.4×10^5 cells/ml by addition of pre-warmed medium (DMEM+10% FCS). 50 μl of this suspension was added to each well of a 384-well assay plate (Black, clear bottomed, Greiner) already containing 0.5 μl of test compound.
All plates were covered with gas permeable seals and incubated at 37° C., 5% CO2 for 48 hours. After 48 hours, 5 μl WST-1 reagent (Roche, 11 644 807 001) was added to each well and the plate returned to the incubator for 3 hours. After this incubation period absorbance was read at 450 nm on an EnVision (Perkin Elmer) plate reader. The half maximal cytotoxic concentration (CC50) values were calculated for each compound by constructing log concentration-response curves.
All of the exemplified compounds have been screened in a cell proliferation assay (WST-1). A majority have […] in at least 2 independent experiments, the exceptions being the compounds of examples 1, 10, 12, 23, 25, 37, 47, 48, 49, 52, 56, 57, 58, 60, 67, 68, 69, 70, 71, 72, 73, 74, 79, 81 and 84 which have CC50 values>2 μM in 1 experiment, and example 20 where the CC50 is reported as >10 nM (in this instance the top concentration tested in the assay was 10 nM).
(A replicon is a self-replicating genome or part of one, used to study replication in cells.)

Where [2] appears, read: geometric mean, 95% confidence intervals in parentheses, 48 hours, medium with 10% FCS.
The mark [3] stands for this setting: 1b (con1) HCV replicon cells, WST-1, 48 hours, in 1 experiment.

Where a name gives a salt, the structure may show the parent alone. Read-outs that look alike come from different tables or passages of the source.

In general, IC50 refers to the concentration that inhibits the measured activity by half. By CC50 is commonly meant the concentration that lowers cell viability or growth by half. On to `CC[C@H](NC(=O)OC)C(=O)N1CCC[C@H]1c1nc(-c2ccc(-c3cnc4cc(-c5cnc([C@@H]6CCCN6C(=O)[C@H](CC)NC(=O)OC)[nH]5)cnc4c3)cc2)c[nH]1` [Example 12, Methyl {(2S)-1-[(2S)-2-{4-[4-(7-{2-[(2S)-1-{(2S)-2-[(methoxycarbonyl)amino]butanoyl}pyrrolidin-2-yl]-1H-imidazol-5-yl}-1,5-naphthyridin-3-yl)phenyl]-1H-imidazol-2-yl}pyrrolidin-1-yl]-1-oxobutan-2-yl}carbamate], for which the IC50 in the data set on 1a-H77 replicon cells (setting [2]) was 3100 pM; with 1b (con1) replicon cells (setting [2]), 358 pM. The cytotoxic concentration (CC50) at 48 h in data set [1] (setting [3]) was above 2000 nM.

For `COC(=O)N[C@H](C(=O)N1CCC[C@H]1c1nc(-c2ccc(-c3cnc4cc(-c5cnc([C@@H]6CCCN6C(=O)[C@H](NC(=O)OC)c6ccccc6)[nH]5)ccc4n3)cc2)c[nH]1)C(C)C` [Example 84, Methyl {(2S)-1-[(2S)-2-{4-[4-(6-{2-[(2S)-1-{(2R)-2-[(methoxycarbonyl)amino]-2-phenylacetyl}pyrrolidin-2-yl]-1H-imidazol-5-yl}quinoxalin-2-yl)phenyl]-1H-imidazol-2-yl}pyrrolidin-1-yl]-3-methyl-1-oxobutan-2-yl}carbamate trifluoroacetic acid salt], the IC50 was determined as 19 pM with 1a-H77 replicon cells (48 h) and 10.9 pM in the data set on 1b (con1) replicon cells (48 h). Also, the CC50 at 48 h in data set [1] (setting [3]) was above 2000 nM.

For `COC(=O)N[C@@H](CCc1ccccc1)C(=O)N1CCC[C@H]1c1ncc(-c2ccc3nc(-c4ccc(-c5c[nH]c([C@@H]6CCCN6C(=O)[C@@H](NC(=O)OC)C(C)C)n5)cc4)cnc3c2)[nH]1` [Example 79, Methyl {(2S)-1-[(2S)-2-{5-[2-(4-{2-[(2S)-1-{(2S)-2-[(methoxycarbonyl)amino]-3-methylbutanoyl}pyrrolidin-2-yl]-1H-imidazol-4-yl}phenyl)quinoxalin-6-yl]-1H-imidazol-2-yl]pyrrolidin-1-yl]-1-oxo-4-phenylbutan-2-yl}carbamate trifluoroacetic acid salt], the IC50 in the data set on 1a-H77 replicon cells (48 h) is 47.6 pM; with 1b (con1) replicon cells (48 h), 11.7 pM. In data set [1] (setting [3]), the CC50 at 48 h is above 2000 nM.

As to `COC(=O)N[C@H](C(=O)N1CCC[C@H]1c1ncc(-c2ccc(-c3ccc4cc(-c5cnc([C@@H]6CCCN6C(=O)[C@@H](NC(=O)OC)C(C)C)[nH]5)cnc4c3)nc2)[nH]1)C(C)C` [Example 10, Methyl {(2S)-1-[(2S)-2-{5-[6-(3-{2-[(2S)-1-{(2S)-2-[(methoxycarbonyl)amino]-3-methyl-butanoyl}pyrrolidin-2-yl]-1H-imidazol-5-yl}quinolin-7-yl)pyridin-3-yl]-1H-imidazol-2-yl}pyrrolidin-1-yl]-3-methyl-1-oxobutan-2-yl}carbamate], the IC50 in the data set on 1a-H77 replicon cells (setting [2]) was found to be 1320 pM; in the data set with 1b (con1) replicon cells (setting [2]), 49.4 pM. In data set [1] (setting [3]), this compound yielded a CC50 at 48 h above 2000 nM.

For `COC(=O)N[C@@H](CCS(C)(=O)=O)C(=O)N1CCC[C@H]1c1ncc(-c2ccc3nc(-c4ccc(-c5c[nH]c([C@@H]6CCCN6C(=O)[C@@H](NC(=O)OC)C(C)C)n5)cc4)cnc3c2)[nH]1` [Example 67, methyl [(2S)-1-[(2S)-2-{5-[2-(4-{2-[(2S)-1-{(2S)-2-[(methoxycarbonyl)amino]-3-methylbutanoyl}pyrrolidin-2-yl]-1H-imidazol-4-yl}phenyl)quinoxalin-6-yl]-1H-imidazol-2-yl}pyrrolidin-1-yl]-4-(methylsulfonyl)-1-oxobutan-2-yl]carbamate trifluoroacetic acid salt], the results for the 50% inhibitory concentration (IC50) in the data set on 1a-H77 replicon cells (48 h) and in the data set with 1b (con1) replicon cells (48 h) were 27.5 pM and 74.8 pM, respectively. The CC50 at 48 h in data set [1] (setting [3]) is above 2000 nM.

Regarding `COC(=O)N[C@H](C(=O)N1CCC[C@H]1c1nc(-c2ccc(-c3cnc4cc(-c5cnc([C@@H]6CCCN6C(=O)[C@@H](NC(=O)OC)[C@@H](C)O)[nH]5)ccc4n3)cc2)c[nH]1)C(C)C` [Example 60, Methyl {(2S)-1-[(2S)-2-{4-[4-(6-{2-[(2S)-1-{(2S,3R)-3-hydroxy-2-[(methoxycarbonyl)amino]butanoyl}pyrrolidin-2-yl]-1H-imidazol-5-yl}quinoxalin-2-yl)phenyl]-1H-imidazol-2-yl}pyrrolidin-1-yl]-3-methyl-1-oxobutan-2-yl}carbamate trifluoroacetic acid salt], the IC50 with 1a-H77 replicon cells (48 h) worked out at 22.3 pM; in the data set on 1b (con1) replicon cells (48 h) it was 23.7 pM. The cytotoxic concentration (CC50) at 48 h in data set [1] (WST-1, 48 hours, in 1 experiment) is above 2000 nM.

Turning to `COC(=O)N[C@H](C(=O)N1CCC[C@H]1c1nc(-c2ccc(-c3cnc4cc(-c5cnc([C@@H]6CCCN6C(=O)[C@H](NC(=O)OC)C(C)(C)C)[nH]5)ccc4n3)cc2)c[nH]1)C(C)C` [Example 73, Methyl {(2S)-1-[(2S)-2-{4-[4-(6-{2-[(2S)-1-{(2R)-2-[(methoxycarbonyl)amino]-3,3-dimethylbutanoyl}pyrrolidin-2-yl]-1H-imidazol-5-yl}quinoxalin-2-yl)phenyl]-1H-imidazol-2-yl}pyrrolidin-1-yl]-3-methyl-1-oxobutan-2-yl}carbamate trifluoroacetic acid salt], the results for the IC50 with 1a-H77 replicon cells (48 h) and in the data set with 1b (con1) replicon cells (48 h) were 13.3 pM and 8.11 pM, respectively. Further, the CC50 at 48 h in data set [1] (setting [3]) is above 2000 nM.

As for `COC(=O)N[C@H](C(=O)N1CCC[C@H]1c1nc(-c2ccc(-c3cnc4cc(-c5cnc([C@@H]6CCCN6C(=O)[C@@H](CCc6ccccc6)NC(=O)OC)[nH]5)ccc4n3)cc2)c[nH]1)C(C)C` [Example 72, Methyl {(2R)-1-[(2S)-2-{5-[2-(4-{2-[(2S)-1-{(2S)-2-[(methoxycarbonyl)amino]-3-methylbutanoyl}pyrrolidin-2-yl]-1H-imidazol-4-yl}phenyl)quinoxalin-6-yl]-1H-imidazol-2-yl}pyrrolidin-1-yl]-1-oxo-4-phenylbutan-2-yl}carbamate trifluoroacetic acid salt], the IC50 in the data set with 1a-H77 replicon cells (48 h) is 53.6 pM; in the data set with 1b (con1) replicon cells (48 h), 7.81 pM. Further, the CC50 at 48 h in data set [1] (setting [3]) was above 2000 nM.

Regarding `COC(=O)N[C@H](C(=O)N1CCC[C@H]1c1ncc(-c2ccc(-c3ncc4cc(-c5cnc([C@@H]6CCCN6C(=O)[C@@H](NC(=O)OC)C(C)C)[nH]5)ccc4n3)nc2)[nH]1)C(C)C` [Example 20, Methyl {(2S)-1-[(2S)-2-{5-[2-(5-{2-[(2S)-1-{(2S)-2-[(methoxycarbonyl)amino]-3-methylbutanoyl}pyrrolidin-2-yl]-1H-imidazol-5-yl}pyridin-2-yl)quinazolin-6-yl]-1H-imidazol-2-yl}pyrrolidin-1-yl]-3-methyl-1-oxobutan-2-yl}carbamate], the concentration for half-maximal inhibition (IC50) in the data set on 1a-H77 replicon cells (setting [2]) worked out at 1720 pM; in the data set with 1b (con1) replicon cells (setting [2]), 127 pM. Further, the CC50 at 48 h in data set [1] (1b (con1) HCV replicon cells, WST-1, top concentration tested in the assay was 10 nM) is above 10 nM.

`COC[C@H](NC(=O)OC)C(=O)N1CCC[C@H]1c1ncc(-c2ccc3nc(-c4ccc(-c5c[nH]c([C@@H]6CCCN6C(=O)[C@@H](NC(=O)OC)C(C)C)n5)cc4)cnc3c2)[nH]1` [Example 69, Methyl {(2S)-1-[(2S)-2-{4-[4-(6-{2-[(2S)-1-{(2S)-3-methoxy-2-[(methoxycarbonyl)amino]propanoyl}pyrrolidin-2-yl]-1H-imidazol-5-yl}quinoxalin-2-yl)phenyl]-1H-imidazol-2-yl}pyrrolidin-1-yl]-3-methyl-1-oxobutan-2-yl}carbamate trifluoroacetic acid salt]: the IC50 in the data set on 1a-H77 replicon cells (48 h) turned out to be 22.3 pM; in the data set with 1b (con1) replicon cells (48 h), 19.6 pM. Further, the CC50 at 48 h in data set [1] (setting [3]) is above 2000 nM.
